Source: patent US20200289482A1, “CYSTIC FIBROSIS TRANSMEMBRANE CONDUCTANCE REGULATOR MODULATORS FOR TREATING AUTOSOMAL DOMINANT POLYCYSTIC KIDNEY DISEASE” (The Johns Hopkins University, priority 2017, published 2020)

Assays:
Hsp27 = assay: Western blot of Hsp27 in PN cells; assay type: cell-based, mouse; details: VX-809 10 μM 16 h
Procedure: FIG. 8A, FIG. 8B, FIG. 8C, FIG. 8D, FIG. 8E, FIG. 8F, FIG. 8G, and FIG. 8H show chaperone expression is altered in PH and PN cells by VX-809. (FIG. 8A) Western blot showing expression of HSP27, 70 and HSP 90 in VX-809 treated or control PN cells. […] (FIG. 8E). Western blot of HSP27, 70 and 90 in PH vs. PN cells. […] Whereas, Hsp70 is higher in PH vs. PN cells. Data were analyzed by non-parametric t test. Experiment was repeated 4-5 times. Cells were grown in 10-cm culture dishes at permissive conditions (33° C.) with γ-interferon in culture media. Cells were then transferred to non-permissive conditions at 37° C., γ-interferon free culture media and evaluated at full confluence. At day four, cells were treated with VX-809 (10 μM) for 16 h and harvested on fifth day for assay. *P<0.05., **P<0.01, ***P<0.001, ****P<0.0001; To facilitate their growth in the kidney, cysts have developed an altered network of proteins that most likely serves to protect them from stress (34). Next, it was determined whether VX-809 would alter the levels of Hsps in pkd−/− mice and in PN cells. […] Hsp 27, 70 and 90 are all elevated in cystic kidneys compared to normal controls. […] There is no change in Hsp 40. […] Both sets of data are consistent with an alteration in the heat shock response to cyst growth.

[1] = tested on: kidneys of Pkd1^fl/fl; Pax8^rtTA; TetO-cre mice; assay: Ki67 staining of kidney sections (proliferation); assay type: in vivo, mouse; details: VX-809 30 mg/kg to mice vs DMSO-treated mice; PN21 kidney sections
Text: FIG. 3A, FIG. 3B, FIG. 3C, and FIG. 3D show cell proliferation is reduced by VX-809. (FIG. 3A-FIG. 3B) Proliferation in kidneys of Pkd1^fl/fl; Pax8^rtTA; TetO-cre mice. Representative images of Ki67 (a cellular marker for proliferation) staining of PN21 kidney sections from DMSO- and VX-809-treated mice. Arrows indicate Ki67-positive cells. Pictures were acquired with a Zeiss microscope equipped with 20× objective. (FIG. 3C) Summary data for Ki67-positive cells. Columns represent averages±standard errors of DMSO (vehicle)-treated (n=3) and VX-809-treated (n=3) mice. Statistical analysis was performed using a two-tailed Student's t test. (FIG. 3D) Proliferation in PN cells. PN cells were treated with VX-809 or DMSO). The bromodeoxyuridine (BrdU) concentration in the cells was measured by using a BrdU cell proliferation assay kit (Millipore Sigma #2750) according to the manufacturer's protocol. Columns represent averages±SEs of the OD of BrdU at 450/550 […]. Data were analyzed using Student's t-test, with n=5-7. Methods were described previously (62). […]; **P<0.01;
A hallmark of the cysts in ADPKD is an increase in proliferation in response to cAMP (23). Therefore, it was determined whether VX-809 would affect proliferation.

CFTR = CFTR (Mus musculus, UniProt P26361); assay: Confocal microscopy localization of CFTR; assay type: cell-based; design: endogenous in cells; details: VX-809 treated vs control cells; ER, Golgi and PM markers
Text: FIG. 18A and FIG. 18B show images of confocal microscopy localization studies of CFTR and localization markers in control and treated cells (FIG. 18A) and graphs showing Pearson's correlation coefficient for CFTR and localization markers in control and VX-809 treated cells (FIG. 18B).
The localization of PC2 and CFTR in control cells was compared to the localization of PC2 and CFTR localization in VX-809 treated cells.

NHE3 = NHE3 expression in PN cells; assay type: cell-based, mouse; details: PN cells treated with VX-809 vs PN cells
Procedure: FIG. 14A and FIG. 14B show NHE3 expression in PN cells treated with VX-809.
The expression and activity of […] were evaluated. Specifically, NHE3 expression was evaluated in PN cells that were treated with VX-809. […] was also studied in PN, PH, and PN cells treated with VX-809. […] Next, NHE3 activity was evaluated in PN/PH cells or PN cells treated with VX-809. NHE3 activity was increased in PN cells treated with VX-809, as compared to PN cells (FIG. 16A). NHE3 activity was higher in control PH cells than in PN cells (FIG. 16B). […] NHE3 activity was increased in both VX-809 treated PN cells and control PH cells, as compared to control PN cells (FIG. 16C).

Hsp90 = assay: Cycloheximide chase, disappearance of Hsp90 in PN cells; assay type: cell-based, mouse; details: VX-809 10 μM with cycloheximide 25 μM
Procedure: FIG. 9A, FIG. 9B, FIG. 9C, FIG. 9D, FIG. 9E, FIG. 9F, FIG. 9G, and FIG. 9H show Hsp27, HSp70, and Hsp90 expression in PN cells treated with VX-809 and/or cycloheximide. (A) Pkd1 null (PN) cells were treated with VX-809 (10 μM) and/or with cycloheximide (25 μM) for indicated time points before being harvested for the assay. (FIG. 9A) Western blot showing expression of Hsp27, Hsp70, and Hsp90 in VX-809-(16 h), cycloheximide-treated, or control PN cells. ((FIG. 9B. (FIG. 9C, and (FIG. 9D) Columns represent averages±standard errors of Hsp27, Hsp70, and Hsp90 expression in cells treated with VX-809 and/or cycloheximide. ((FIG. 9E) Western blot showing expression of Hsp27, Hsp70, and Hsp90 in PN cells treated with VX-809+cycloheximide or control PN cells. ((FIG. 9F, (FIG. 9G, and (FIG. 9H) Columns represent averages±standard errors of Hsp27, Hsp70, and Hsp90 expression in cells treated only with cycloheximide or in control PN cells. Data were analyzed by non-parametric t-test. The experiments were repeated 3-5 times. *P<0.05, **P<0.01;
To gain more insight into the mechanism whereby VX-809 alters Hsp protein levels, translation was inhibited by using cycloheximide (35) and the disappearance of the three Hsps was monitored. […] Hsp 90 was reduced by approximately 25%, and Hsp27 was unchanged.

Sequence of CFTR (P26361 whole entry): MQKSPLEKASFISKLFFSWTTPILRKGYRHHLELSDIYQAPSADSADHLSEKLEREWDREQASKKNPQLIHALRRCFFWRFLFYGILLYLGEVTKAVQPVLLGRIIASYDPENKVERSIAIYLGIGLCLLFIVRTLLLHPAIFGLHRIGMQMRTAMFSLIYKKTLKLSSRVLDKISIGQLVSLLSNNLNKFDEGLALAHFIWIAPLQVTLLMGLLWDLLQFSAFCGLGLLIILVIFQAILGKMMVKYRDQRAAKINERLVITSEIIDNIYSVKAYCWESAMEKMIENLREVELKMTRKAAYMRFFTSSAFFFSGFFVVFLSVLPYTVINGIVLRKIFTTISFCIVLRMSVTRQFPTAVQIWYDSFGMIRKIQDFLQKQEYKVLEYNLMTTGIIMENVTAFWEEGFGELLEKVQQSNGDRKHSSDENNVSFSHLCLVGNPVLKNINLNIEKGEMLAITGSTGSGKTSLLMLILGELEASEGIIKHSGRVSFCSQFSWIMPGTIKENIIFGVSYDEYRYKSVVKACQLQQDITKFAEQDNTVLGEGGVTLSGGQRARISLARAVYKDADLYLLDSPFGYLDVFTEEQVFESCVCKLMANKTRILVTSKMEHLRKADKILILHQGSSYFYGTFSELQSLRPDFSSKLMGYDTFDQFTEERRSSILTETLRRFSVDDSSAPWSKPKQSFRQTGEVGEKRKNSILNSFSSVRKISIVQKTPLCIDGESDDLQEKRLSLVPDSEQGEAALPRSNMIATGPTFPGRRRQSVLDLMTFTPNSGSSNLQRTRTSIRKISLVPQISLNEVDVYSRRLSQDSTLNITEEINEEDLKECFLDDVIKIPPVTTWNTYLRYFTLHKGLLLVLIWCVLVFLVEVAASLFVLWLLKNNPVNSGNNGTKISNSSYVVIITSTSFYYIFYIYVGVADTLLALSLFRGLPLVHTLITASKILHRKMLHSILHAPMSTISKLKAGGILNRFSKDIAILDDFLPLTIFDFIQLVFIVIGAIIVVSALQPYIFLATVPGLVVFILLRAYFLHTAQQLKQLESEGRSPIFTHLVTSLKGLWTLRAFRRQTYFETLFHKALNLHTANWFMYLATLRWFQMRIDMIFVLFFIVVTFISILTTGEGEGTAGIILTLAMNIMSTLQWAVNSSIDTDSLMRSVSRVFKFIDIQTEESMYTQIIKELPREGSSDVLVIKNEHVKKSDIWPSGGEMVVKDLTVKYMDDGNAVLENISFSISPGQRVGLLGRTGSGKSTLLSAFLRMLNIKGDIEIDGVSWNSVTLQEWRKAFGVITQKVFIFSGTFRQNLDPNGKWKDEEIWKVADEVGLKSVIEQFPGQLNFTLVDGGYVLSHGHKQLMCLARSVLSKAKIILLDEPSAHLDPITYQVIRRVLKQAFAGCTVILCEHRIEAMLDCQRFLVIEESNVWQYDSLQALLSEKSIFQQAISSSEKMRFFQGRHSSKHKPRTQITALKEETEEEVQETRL

What does the source list for lumacaftor [VX-809]?
Hsp27 expression in PN cells (Hsp27): reduced expression; cell proliferation (Ki67-positive cells) [1]: significantly inhibit cell proliferation; localization of CFTR (CFTR): statistically significant move of CFTR from the ER to Basolateral and Apical Membrane; NHE3 expression (NHE3): significantly increased; Hsp 90 reduction over the 8-h period (Hsp90): approximately 25%
